Laboratory results from patent publication US20190054109A1, “An antiviral composition and a method for application thereof” (ALLA CHEM, LLC, priority 2017, published 2019).
“Also recorded” adds a separate entry of the source.

Key:
[1] = Cytotoxicity in Huh7 cells (ATPLite kit); type: cell-based; conditions: human
Procedure: The cytotoxicity of tested compositions comprising the prodrug was evaluated concurrently in the same cell line Huh7 using an ATPLite kit (Perkin-Elmer, Boston, USA) in accordance with the manufacturer's instruction. The cell suspension in complete culture medium (DMEM 1×, Cellgro; cat. #10-013-CV) was transferred into 96-well plates with black walls and transparent bottoms (50 μl/well) with a final density of 7500 cells per well. Eighteen hours after planting the cells, serial compound dilutions (50 μl/well) were added. The plate with cells was incubated for 4 days at 37° C. in a humidified 5% CO2 atmosphere. The cells were then twice washed with PBS (200 μl/well) and lysed by adding a lytic buffer (50 μl/well); all reagents were taken from the ATPLite kit. Following a 5-minute stirring on a shaker, a substrate was added (50 μl/well). After an additional 5-minute incubation, the plate was kept for 10 minutes in the dark, and luminescence in the wells was measured using the multifunctional reader Victor^3 V 1420 (Perkin Elmer). The values of CC50 for tested compounds were measured from a cytotoxicity curve plotted using the GraphPad Prizm software.

in vitro = conditions: human, plasma
Procedure: Evaluation of stability in biological matrix for compositions comprising the prodrug of formula 1.1. Initial compositions comprising the prodrug of formula 1.1 (the tested compounds) were prepared with a concentration of 10 mM in DMSO. From said compositions, 100-fold working solutions were prepared with a concentration of 100 μM in a mixture of acetonitrile: water with a volumetric ratio of 1:1.
The incubation was performed in a Vortemp56 shaking incubator at 37° C. with stirring at a rate of 300 rev/min. […] The samples were then centrifuged, and the supernatant (150 μl) was sampled for analysis […]. The incubation was performed in two replicates, with each sample measured twice.
Samples were analyzed using an HPLC-MS/MS technique developed for each tested prodrug, wherein the chromatographic system 1290 Infinity II (Agilent Technologies) was combined with the tandem mass spectrometer QTRAP5500 (AB Sciex). […] Scanning in a total ion current mode (MS1) allowed us to identify a molecular ion for each compound, and basic product ions were recorded in MS2 mode. […] In quantitative chromatogram processing, the most intensive MRM transition was used for the analyte and the internal standard. […]

[2] = Pharmacokinetics of triphosphate PSI-7409 in rat liver after peroral administration; type: in vivo, Sprague Dawley rats; conditions: comparison of Cmax and AUC24h in rat liver
Procedure: The tested composition was administered at a dose of 50 mg/kg. To this end, compositions were prepared with a concentration of prodrug 1.1 or Sovaldi® of 5.0 mg/ml in a 0.5% solution of hydroxypropyl methylcellulose (HPMC), to which 5% ethanol was added, as follows: to a weighed portion of the prodrug of formula 1.1 or Sovaldi®, an appropriate amount of HPMC was added, and the mixture was triturated dry in a mortar, whereafter a proper quantity of 5% ethanol in distilled water was gradually added portionwise, and the mixture was carefully stirred to obtain a suspension suitable for intragastric administration.
The study was carried out on Sprague Dawley rats. The rats were divided into groups of 6 based on selected time points (1, 2, 4, 6, 8, 10, 12, 16, and 24 h). The rats were weighed, and the volume of compositions comprising the prodrug of formula 1.1 or Sovaldi® was calculated for each animal at a rate of 10 ml/kg. Compositions comprising the prodrug of formula 1.1 or Sovaldi® were administered intragastrically through a feeding tube. […]
Samples were analyzed using an HPLC-MS/MS technique, wherein the HPLC system Agilent 1290 Infinity II was combined with the AB Sciex QTrap 5500 mass spectrometer. […] PSI-7409 and H027-4261 were recorded in MRM mode with ion transitions of 499/159 and 410/150, respectively. […]

## C[C@H](N[P@](=O)(OC[C@H]1O[C@@H](n2ccc(=O)[nH]c2=O)[C@](C)(F)[C@@H]1O)Oc1ccccc1)C(=O)OC1CCC1 [Prodrug 1.1, cyclobutyl (S)-2-{(S)-[(2R,3R,4R,5R)-5-(3,4-dihydro-2,4-dioxo-2H-pyrimidin-1-yl)-3-hydroxy-4-methyl-4-fluoro-tetrahydro-furan-2-ylmethoxy]-phenoxy-phosphorylamino}-propanoate]
[1]; Huh7, 10% FBS
  CC90 at 4 days: > 100 µM
[1]; Huh7, ATPLite, 4 days
  CC50 at 4 days: > 100 µM
In vitro
  half-life at 1 μM: > 24 h
[2]
  effectiveness of liver metabolism into triphosphate PSI-7409 relative to Sovaldi: almost twice more effective; also recorded: almost two times more effectively
